From PMC10675077, “Antimicrobial Properties of New Polyamines Conjugated with Oxygen-Containing Aromatic Functional Groups” (Molecules, 2023)
Values after ≈ are worked out from the molar mass of the structure shown.

How the values were obtained:
[1] = test system: Saccharomyces cerevisiae BY4741/YEplac195; assay: microbe, parasite or virus in culture; type: cell-based; conditions: Saccharomyces cerevisiae; 24 h, 30 °C; average of at least three experiments; read-out: MIC, Yeast, BY4741/ YEplac195
Description: (§1) The microorganisms used for the susceptibility tests were the bacteria Escherichia coli JM101 and Staphylococcus aureus BHI, and the yeast Saccharomyces cerevisiae strains BY4741 (MAT a his3Δ1 leu2Δ0 met15Δ0 ura3Δ0 (EUROSCARF)) carrying YEplac195 (from EUROSCARF) or YEPlac195-PDR5 (provided by Ayse Banu Demir, Izmir University of Economics, Turkey) plasmids.
(§2) Bacterial strains were usually maintained and grown in an LB medium (0.5% (w/v) yeast extract, 1% (w/v) bactotryptone, and 1% (w/v) NaCl) at 37 °C. For MIC (minimal inhibitory concentration) and MMC (minimal microbicidal concentration) assays, and for the determination of synergies, overnight growth was carried out in 2% (w/v) bactopeptone (BP), and then the cultures were diluted and incubated for several hours in 2% (w/v) BP for ensuring logarithmic growth. Yeast strains were grown in an SC-ura medium (0.17% (w/v) yeast nitrogen base without amino acids and ammonium sulphate, 0.2% (w/v) drop-out without uracil, 0.5% (w/v) (NH4)2SO4, and 2% (w/v) glucose) at 30 °C. Liquid cultures were incubated with shaking (200 rpm). Solid media also contained 2% (w/v) agar.
(§3) The determination of the MIC for yeast strains was carried out following a similar procedure to that of the polyamines and antifungal reference agents: Serial dilutions of each one in phosphate buffer (20 mM, pH 7.4, 0.5 mL) were prepared and mixed with a suspension of yeast cells (OD600 0.04 in SC-ura 2X (VWR, Atlanta, GA, USA), 0.5 mL). […] Experiments were carried out at least three times in all cases.

[2] = test system: Saccharomyces cerevisiae BY4741/YEplac195-PDR5; assay: microbe, parasite or virus in culture; type: cell-based; conditions: Saccharomyces cerevisiae, 24 h, read-out: MIC, Yeast, BY4741/ PDR5
Description: as §1, §2, §3

yeast cells = assay: Intracellular ATP by luciferase bioluminescence, yeast; type: cell-based, Saccharomyces cerevisiae; conditions: overnight treatment
Procedure: The procedure described by Lehtinen et al. was followed, with the modifications indicated herein. In the case of bacteria, 1.5 OD600 units were incubated overnight in 1 mL of final volume with 5-fold MIC concentrations. Then, the cells were collected, washed 3 times in 20 mM phosphate buffer pH 7.4, and lysed in 200 μL of LS1 (50 mM of glucose, 25 mM of Tris-HCl pH 8.0, and 10 mM of EDTA pH 8.0) containing 5 mg/mL of lysozyme and the same volume of glass beads (425–600 μm), by stirring 10 times for 15 s each. Then, the solution was centrifuged at 14,800× g for 15 min, and the supernatant was used for a luciferase assay. For this purpose, in each well of a microtiter plate, 100 μL of luciferase assay buffer (0.015 M of MgSO4, 0.015 M of KH2PO4 pH 8, 0.004 M of EGTA pH 8, and 2 mM of DTT) was added together to a 50 μL of 0.3 mg/mL luciferin solution in 0.01% (w/v) Triton X-100 and 50 μL of the cell extract. Finally, 15 μL of a 67 μg/mL aqueous solution of luciferase was added. Light emission was immediately detected using a Luminoskan Ascent instrument (Thermo Scientific, Waltham, MA, USA) for 1 s per well. Glass beads, lysozyme, luciferin, and luciferase were purchased from Sigma-Aldrich.
[…] Then, cells were collected and washed as above and resuspended in 500 μL of LS2 (140 mM of NaCl, 1.5 mM of MgCl2, 10 mM of Tris-HCl pH 8.0, and 0.5% (v/v) NP40). Cells were lysed in the presence of 1 volume of glass beads as described above. The next steps were carried out as in the case of bacterial samples.
Experiments were carried out at least in triplicate in all cases, and control drugs and SDS (0.1% (w/v) of the final concentration) were also included.

[3] = Cytotoxicity, flow cytometry viability assay with propidium iodide; type: cell-based, human; conditions: human, Jurkat cells (human lymphocytic leukaemia, ATCC TIB-152), 24 h treatment, average of three experiments, read-out: IC50, cytotoxicity on the human Jurkat cell line
Procedure: The cytotoxicity of the compounds was assessed via flow cytometry with a viability assay using propidium iodide (PI), a DNA-binding fluorescent probe not permeant to live cells, which is commonly used to detect dead cells in a population. The human lymphocytic leukaemia Jurkat cell line (ATCC TIB-152) was obtained from the American Type Cell Culture (Sigma-Aldrich) and grown in suspension in an RPMI 1640 medium (Thermo Fisher Scientific, Waltham, MA, USA) supplemented with L-glutamine, antibiotics, and 10% heat-inactivated foetal calf serum (FCS, Thermo Fisher Scientific, Waltham, MA, USA). For the viability assay, cells were seeded in plastic 96-well plates at […] in an RPMI 1640 medium supplemented with 5% FCS. The cells were treated for 24 h with a range of concentrations of the test compounds or with the same volume of phosphate buffer (PBS) in control wells. After incubation, cell suspensions were washed, resuspended in 400 μL fresh medium, and incubated for 5 min at room temperature in the dark with 3.75 μM PI (Sigma-Aldrich). Cell viability was determined via flow cytometry using a Gallios flow cytometer (Beckman Coulter). PI fluorescence was excited with an argon-ion laser at 488 nm and collected through a 620/630 nm band-pass emission. Cellular events were discriminated from debris using forward scatter (FS) and side scatter (SS) signals. Cell aggregates were excluded from analysis based on FS-integral and FS-peak. The gates applied for population discrimination were set manually based on control samples. For each sample, 10,000 events were collected. For further analysis, the cytometric data were exported to Kaluza 2.1 software (Beckman Coulter, Brea, CA, USA). Dead cells were identified and quantified as PI-positive events. The cytotoxic potency of test compounds was quantified using their IC50 values, i.e., the compound concentration at which cell viability is inhibited by 50%, as calculated via curve fitting and determined with the correlation coefficient (R2) using GraphPad Prism 9.0 software. Experiments were carried out in triplicate.

[4] = Potentiometric titrations in water (protonation constants); type: physicochemical; conditions: for log β (cumulative protonation constant): calculated as log β = ∑j log KHjL; for n, average number of positive charges at pH 7.4: calculated from protonation constants
Procedure: The potentiometric titrations were carried out at 298.1 ± 0.1 K using NaCl 0.15 M as a supporting electrolyte. The experimental procedure (burette, potentiometer, cell, stirrer, microcomputer, etc.) has been fully described elsewhere. The acquisition of the EMF data was performed with the computer program PASAT [50]. The reference electrode was a Ag/AgCl electrode in a saturated KCl solution. The glass electrode was calibrated as a hydrogen-ion concentration probe via the titration of previously standardised amounts of HCl with CO2-free NaOH solutions and the equivalent point determined using the Gran method, which provides the standard potential, E^θ′, and the ionic product of water (pKw = 13.73(1)).
The computer program […] was used to calculate the protonation constants. The pH range investigated was 2.5–11.0, and the concentration of the ligands ranged from 5 × 10^−4 to 5 × 10^−[…]. The different titration curves for each system (at least two) were treated either as a single set or as separated curves without significant variations in the values of the stability constants. Finally, the sets of data were merged and treated simultaneously to give the final stability constants.

E. coli JM101 = assay: Minimal bactericidal concentration, E. coli; type: cell-based, Escherichia coli; conditions: Escherichia coli, JM101; overnight incubation, plating on LB; bacteriostatic if growth at 4 times the MIC
Procedure: (§4) Once the MIC was known, the samples were prepared as described in the previous section with polyamine concentrations corresponding to the MIC and half, double, and four times its value. After overnight incubation with the microorganisms, 30 μL of a ten-fold dilution of each one was spread in LB (in the case of bacterial strains) or SC-ura (for yeast strains) plates. They were incubated for 20 h at 37 °C (bacteria) or 48 h at 30 °C (yeasts), and the level of growth was determined. […] Experiments were carried out at least three times.

[5] = test system: Yeast (S. cerevisiae strains); assay: MIC, yeast (strain not specified); type: cell-based, Saccharomyces cerevisiae; conditions: Saccharomyces cerevisiae; yeast strain not specified (Tables 5 and 10); read-out: MIC Yeast
Procedure: as §3

Escherichia coli JM101 = assay: MIC, microdilution in culture medium, E. coli; type: cell-based; conditions: Escherichia coli, JM101; 20 h, 37 °C; average of at least three experiments; read-out: MIC, Bacteria, E. coli JM101
Description: as §1, §2
(§5) For the analysis of the antimicrobial activity, the strategies and indications of Cushnie et al. were considered. The standardised method of microdilution in a culture medium was followed to determine the MIC [55]. In bacterial strains, serial dilutions of the compounds to be tested and the control antibiotics were prepared in phosphate buffer (20 mM, pH 7.4, 0.5 mL) and were mixed with a suspension of bacterial cells in a logarithmic growth phase (in 1% BP, 0.5 mL). The final OD600 of the whole solutions were 0.004 and 0.008 for E. coli and S. aureus cultures, respectively. After 20 h of incubation at 37 °C with shaking, the MIC was determined as the lowest concentration of each compound in which no visible bacterial growth was observed.

[6] = test system: Staphylococcus aureus BHI; assay: MIC, microdilution in culture medium, S. aureus; type: cell-based; conditions: Staphylococcus aureus; 20 h, 37 °C; average of at least three experiments; read-out: MIC, Bacteria, S. aureus BHI
Description: as §1, §2, §5

S. aureus BHI = assay: Minimal bactericidal concentration, S. aureus; type: cell-based, Staphylococcus aureus; conditions: Staphylococcus aureus; overnight incubation, plating on LB
Procedure: as §4

[7] = 298 K, 0.15 mol/dm^3 NaCl, error in last figure in parentheses

C[C@@H]1[C@H](O)[C@@H](C)/C=C/C=C/C=C/C=C/C=C/C=C/C=C/[C@H](O[C@@H]2O[C@H](C)[C@@H](O)[C@H](N)[C@@H]2O)C[C@@H]2O[C@](O)(C[C@@H](O)C[C@@H](O)[C@H](O)CC[C@@H](O)C[C@@H](O)CC(=O)O[C@H]1C)C[C@H](O)[C@H]2C(=O)O [Amphotericin B, reference compound]
MIC [1]: 1 µg/mL
MIC [2]: 1 µg/mL
Intracellular ATP level relative to untreated cells (yeast cells; 50-fold the MIC): dramatic decrease

c1cc2c(cc1CNCCCCNCCCNCc1ccc3c(c1)OCO3)OCO2 [Compound 1a, N^1-(benzo[d][1,3]dioxol-5-ylmethyl)-N^4-(3-((benzo[d][1,3]dioxol-5-ylmethyl)amino)propyl)butane-1,4-diamine]
MIC [1]: > 400 µg/mL
MIC [2]: > 400 µg/mL
IC50 at 24 h [3]: 11.4 µg/mL (≈ 27.6 µM)
Stepwise protonation constant (log K), H2L + H ⇄ H3L [4, 7]: 7.699 (2)
Stepwise protonation constant (log K), L + H ⇄ HL [4, 7]: 10.433 (2)
Stepwise protonation constant (log K), LH + H ⇄ H2L [4, 7]: 8.964 (2)
log β (cumulative protonation constant) ([4]; 298 K, 0.15 mol/dm^3 NaCl): 27.09
n, average number of positive charges at pH 7.4 [4]: 2.7
MBC (E. coli JM101): 100 µg/mL (≈ 242 µM)
MIC [5]: > 400 µg/mL
MIC (Escherichia coli JM101): 50 µg/mL
MIC [6]: 150 µg/mL

c1cc2c(cc1CNCCCNCCCCNCCCNCc1ccc3c(c1)OCO3)OCO2 [Compound 2a, N^1,N^1′-(butane-1,4-diyl)bis(N^3-(benzo[d][1,3]dioxol-5-ylmethyl)propane-1,3-diamine)]
MIC [1]: 250 µg/mL
MIC [2]: 250 µg/mL
IC50 at 24 h [3]: 8.8 µg/mL (≈ 18.7 µM)
Stepwise protonation constant (log K), H2L + H ⇄ H3L [4, 7]: 8.245 (7)
Stepwise protonation constant (log K), H3L + H ⇄ H4L [4, 7]: 7.41 (1)
Stepwise protonation constant (log K), L + H ⇄ HL [4, 7]: 10.81 (3)
Stepwise protonation constant (log K), LH + H ⇄ H2L [4, 7]: 9.481 (8)
log β (cumulative protonation constant) ([4]; 298 K, 0.15 mol/dm^3 NaCl): 35.94
n, average number of positive charges at pH 7.4 [4]: 3.4
MBC (E. coli JM101): 20 µg/mL (≈ 42.5 µM)
MBC (S. aureus BHI): 100 µg/mL (≈ 212 µM)
MIC [5]: 250 µg/mL (≈ 531 µM)
MIC (Escherichia coli JM101): 10 µg/mL
MIC [6]: 50 µg/mL

c1cc2c(cc1CNCCN(CCNCc1ccc3c(c1)OCO3)CCNCc1ccc3c(c1)OCO3)OCO2 [Compound 3a, N^1-(benzo[d][1,3]dioxol-5-ylmethyl)-N^2,N^2-bis(2-((benzo[d][1,3]dioxol-5-ylmethyl)amino)ethyl)ethane-1,2-diamine]
MIC [1]: > 400 µg/mL
MIC [2]: > 400 µg/mL
IC50 at 24 h [3]: 1.86 µg/mL (≈ 3.39 µM)
Stepwise protonation constant (log K), H2L + H ⇄ H3L [4, 7]: 6.93 (3)
Stepwise protonation constant (log K), L + H ⇄ HL [4, 7]: 9.12 (2)
Stepwise protonation constant (log K), LH + H ⇄ H2L [4, 7]: 8.35 (3)
n, average number of positive charges at pH 7.4 [4]: 2.1
MBC (E. coli JM101): 50 µg/mL (≈ 91.1 µM)
MBC (S. aureus BHI): 30 µg/mL (≈ 54.7 µM)
MIC [5]: > 400 µg/mL
MIC (Escherichia coli JM101): 25 µg/mL
MIC [6]: 15 µg/mL

OC(Cn1cncn1)(Cn1cncn1)c1ccc(F)cc1F [Fluconazole, reference compound]
MIC [1]: 10 µg/mL
MIC [2]: 60 µg/mL
Intracellular ATP level relative to untreated cells (yeast cells; 30-fold the MIC): very reduced

CCCCCCCCCCCCOS(=O)(=O)[O-].[Na+] [SDS]
Intracellular ATP level relative to untreated cells (yeast cells; 0.1% (w/v)): 50–70%
